We go through twelve compounds from ChEMBL document CHEMBL6071205, “A New Frontier in Targeted Therapies: Harnessing PROTACs and Advanced Delivery Systems” (ACS Med Chem Lett, 2024).

The assay has as its target von Hippel-Lindau disease tumor suppressor/GTPase KRas (Homo sapiens, UniProt P01116+P40337, G12D). The assay can be described thus: PROTAC activity at VHL/KRAS G12D mutant in human ASPC1 cells assessed as induction of protein degradation incubated for 24 hrs by HiBiT based Nano-Glo luminescence assay. Type of assay: cell-based.

von Hippel-Lindau disease tumor suppressor/GTPase KRas, sequence (P01116 whole entry G12D, stated change not applied): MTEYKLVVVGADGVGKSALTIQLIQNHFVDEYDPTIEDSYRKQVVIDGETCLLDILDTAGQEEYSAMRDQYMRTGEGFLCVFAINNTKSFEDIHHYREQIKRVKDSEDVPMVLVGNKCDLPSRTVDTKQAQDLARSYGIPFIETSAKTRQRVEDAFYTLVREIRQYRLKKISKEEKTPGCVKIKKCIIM
von Hippel-Lindau disease tumor suppressor/GTPase KRas, sequence (P40337 whole entry, stated change not applied): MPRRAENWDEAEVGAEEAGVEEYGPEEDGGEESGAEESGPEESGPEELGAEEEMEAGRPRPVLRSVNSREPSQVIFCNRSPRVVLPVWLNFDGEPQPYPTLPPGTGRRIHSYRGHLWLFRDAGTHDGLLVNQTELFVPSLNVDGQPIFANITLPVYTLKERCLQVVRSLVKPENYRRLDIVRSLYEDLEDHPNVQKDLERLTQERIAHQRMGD

The term DC50 denotes the concentration giving 50% degradation. For the compound `C#Cc1c(F)ccc2cccc(-c3ncc4c(N5CC6CCC(C5)N6)nc(OC[C@@]56CCCN5[C@H](COC(=O)N5CCC7(CCC(CCc8ccc9c(c8)n(C)c(=O)n9C8CCC(=O)NC8=O)CC7)CC5)CC6)nc4c3F)c12` (some centres not stated), the half-maximal degradation concentration (DC50) is at least 100 nM.

For the compound `C#Cc1c(F)ccc2cccc(-c3ncc4c(N5CC6CCC(C5)N6)nc(OC[C@@]56CCCN5[C@H](COC(=O)N5CC(CN7CCN(c8ccc9c(c8)n(C)c(=O)n9C8CCC(=O)NC8=O)CC7)C5)CC6)nc4c3F)c12` (some centres not stated), the DC50 was at most 100 nM.

`C#Cc1c(F)ccc2cc(O)cc(-c3ncc4c(N5CC6CCC(C5)N6)nc(OC[C@@]56CCCN5[C@H](COC(=O)N5CCC(OCc7ccc8c(c7)n(C)c(=O)n8C7CCC(=O)NC7=O)CC5)CC6)nc4c3F)c12` (some centres not stated): the DC50 is at least 100 nM.

`C#Cc1c(F)ccc2cccc(-c3ncc4c(N5CC6CCC(C5)N6)nc(OC[C@@]56CCCN5[C@H](COC(=O)N5CCC(OCCCCCCc7ccc8c(c7)n(C)c(=O)n8C7CCC(=O)NC7=O)CC5)CC6)nc4c3F)c12` (some centres not stated): the DC50 is at most 100 nM.

For `C#Cc1c(F)ccc2cccc(-c3ncc4c(N5CC6CCC(C5)N6)nc(OC[C@@]56CCCN5[C@H](COC(=O)N5CCC(CC7CCN(Cc8ccc9c(c8)n(C)c(=O)n9C8CCC(=O)NC8=O)CC7)CC5)CC6)nc4c3F)c12` (some centres not stated), the half-maximal degradation concentration (DC50) is at most 100 nM.

For `C#Cc1c(F)ccc2cccc(-c3ncc4c(N5CC6CCC(C5)N6)nc(OC[C@@]56CCCN5[C@H](COC(=O)N5CCC(OC7CCN(Cc8ccc9c(c8)n(C)c(=O)n9C8CCC(=O)NC8=O)CC7)CC5)CC6)nc4c3F)c12` (some centres not stated), the DC50 was at most 100 nM.

Take `C#Cc1c(F)ccc2cc(O)cc(-c3ncc4c(N5CC6CCC(C5)N6)nc(OC[C@@]56CCCN5[C@H](COC(=O)N5CCC(OCCCc7ccc8c(c7)n(C)c(=O)n8C7CCC(=O)NC7=O)CC5)CC6)nc4c3F)c12` (some centres not stated): the 50% degradation concentration (DC50) was at most 100 nM.

Turning to `C#Cc1c(F)ccc2cccc(-c3ncc4c(N5CC6CCC(C5)N6)nc(OC[C@@]56CCCN5[C@H](COC(=O)N5CCN(C7CCN(Cc8ccc9c(c8)n(C)c(=O)n9C8CCC(=O)NC8=O)CC7)CC5)CC6)nc4c3F)c12` (some centres not stated), the DC50 was at most 100 nM.

Turning to `C#Cc1c(F)ccc2cccc(-c3ncc4c(N5CC6CCC(C5)N6)nc(OC[C@@]56CCCN5[C@H](COC(=O)N5CCC(CN7CCC(c8ccc9c(c8)n(C)c(=O)n9C8CCC(=O)NC8=O)CC7)CC5)CC6)nc4c3F)c12` (some centres not stated), the 50% degradation concentration (DC50) was at most 100 nM.

`C#Cc1c(F)ccc2cccc(-c3ncc4c(N5CC6CCC(C5)N6)nc(OC[C@@]56CCCN5[C@H](COC(=O)N5CCC(OCCC#Cc7ccc8c(c7)n(C)c(=O)n8C7CCC(=O)NC7=O)CC5)CC6)nc4c3F)c12` (some centres not stated): the DC50 is at most 100 nM.

Take `C#Cc1c(F)ccc2cccc(-c3ncc4c(N5CC6CCC(C5)N6)nc(OC[C@@]56CCCN5[C@H](COC(=O)N5CCC(OCCCc7ccc8c(c7)n(C)c(=O)n8C7CCC(=O)NC7=O)CC5)CC6)nc4c3F)c12` (some centres not stated): the DC50 was at most 100 nM.

In the case of `C#Cc1c(F)ccc2cccc(-c3ncc4c(N5CC6CCC(C5)N6)nc(OC[C@@]56CCCN5[C@H](COC(=O)N5CCC(OC7CN(Cc8ccc9c(c8)n(C)c(=O)n9C8CCC(=O)NC8=O)C7)CC5)CC6)nc4c3F)c12` (some centres not stated), the half-maximal degradation concentration (DC50) was at most 100 nM.
